Assay results: ChEMBL document CHEMBL4000244, “Probing A-form DNA: A fluorescent aminosugar probe and dual recognition by anthraquinone-neomycin conjugates” (Bioorg Med Chem, 2017)

What was measured:
[1] = Binding affinity to 5'-GCGGGGGC-3' DNA hairpin assessed as change in fluorescence intensity at 1 uM after 45 mins by fluorescence quenching analysis relative to control
[2] = Binding affinity to 5'-GCGGCGGG-3' DNA hairpin assessed as change in fluorescence intensity at 1 uM after 45 mins by fluorescence quenching analysis relative to control
[3] = Binding affinity to 5'-CGGGCGCC-3' DNA hairpin assessed as change in fluorescence intensity at 1 uM after 45 mins by fluorescence quenching analysis relative to control
[4] = Binding affinity to 5'-CCCGGGCG-3' DNA hairpin assessed as change in fluorescence intensity at 1 uM after 45 mins by fluorescence quenching analysis relative to control
[5] = Binding affinity to 5'-CGCGCCGC-3' DNA hairpin assessed as change in fluorescence intensity at 1 uM after 45 mins by fluorescence quenching analysis relative to control
[6] = Binding affinity to 5'-GGGCCGCG-3' DNA hairpin assessed as change in fluorescence intensity at 1 uM after 45 mins by fluorescence quenching analysis relative to control
[7] = Binding affinity to 5'-CGGCGCCG-3' DNA hairpin assessed as change in fluorescence intensity at 1 uM after 45 mins by fluorescence quenching analysis relative to control
[8] = Binding affinity to 5'-GGGGGCGC-3' DNA hairpin assessed as change in fluorescence intensity at 1 uM after 45 mins by fluorescence quenching analysis relative to control
[9] = Binding affinity to 5'-GGCCGGCC-3' DNA hairpin assessed as change in fluorescence intensity at 1 uM after 45 mins by fluorescence quenching analysis relative to control
[10] = Binding affinity to 5'-GGGGCGGC-3' DNA hairpin assessed as change in fluorescence intensity at 1 uM after 45 mins by fluorescence quenching analysis relative to control
[11] = Binding affinity to 5'-GGCCGCCG-3' DNA hairpin assessed as change in fluorescence intensity at 1 uM after 45 mins by fluorescence quenching analysis relative to control
[12] = Binding affinity to 5'-CGCGGCGG-3' DNA hairpin assessed as change in fluorescence intensity at 1 uM after 45 mins by fluorescence quenching analysis relative to control
[13] = Binding affinity to 5'-GGGGCGCG-3' DNA hairpin assessed as change in fluorescence intensity at 1 uM after 45 mins by fluorescence quenching analysis relative to control
[14] = Binding affinity to 5'-GGCCGGCG-3' DNA hairpin assessed as change in fluorescence intensity at 1 uM after 45 mins by fluorescence quenching analysis relative to control
[15] = Binding affinity to 5'-CCCGCCCC-3' DNA hairpin assessed as change in fluorescence intensity at 1 uM after 45 mins by fluorescence quenching analysis relative to control
[16] = Binding affinity to 5'-GGCCCCCG-3' DNA hairpin assessed as change in fluorescence intensity at 1 uM after 45 mins by fluorescence quenching analysis relative to control
[17] = Binding affinity to 5'-GGGGCCGG-3' DNA hairpin assessed as change in fluorescence intensity at 1 uM after 45 mins by fluorescence quenching analysis relative to control
[18] = Binding affinity to 5'-GCCCCCCG-3' DNA hairpin assessed as change in fluorescence intensity at 1 uM after 45 mins by fluorescence quenching analysis relative to control
[19] = Binding affinity to 5'-GGGGCGGG-3' DNA hairpin assessed as change in fluorescence intensity at 1 uM after 45 mins by fluorescence quenching analysis relative to control
[20] = Binding affinity to 5'-CGGGGGGC-3' DNA hairpin assessed as change in fluorescence intensity at 1 uM after 45 mins by fluorescence quenching analysis relative to control
[21] = Binding affinity to 5'-CCGCGCGG-3' DNA hairpin assessed as change in fluorescence intensity at 1 uM after 45 mins by fluorescence quenching analysis relative to control
[22] = Binding affinity to 5'-GCGCGCGG-3' DNA hairpin assessed as change in fluorescence intensity at 1 uM after 45 mins by fluorescence quenching analysis relative to control
[23] = Binding affinity to 5'-GCCGGGGC-3' DNA hairpin assessed as change in fluorescence intensity at 1 uM after 45 mins by fluorescence quenching analysis relative to control
[24] = Binding affinity to 5'-GGGCCGGG-3' DNA hairpin assessed as change in fluorescence intensity at 1 uM after 45 mins by fluorescence quenching analysis relative to control
[25] = Binding affinity to 5'-CCCCCGCG-3' DNA hairpin assessed as change in fluorescence intensity at 1 uM after 45 mins by fluorescence quenching analysis relative to control
[26] = Binding affinity to 5'-GGCGCCCG-3' DNA hairpin assessed as change in fluorescence intensity at 1 uM after 45 mins by fluorescence quenching analysis relative to control
[27] = Binding affinity to 5'-GCGCCCGG-3' DNA hairpin assessed as change in fluorescence intensity at 1 uM after 45 mins by fluorescence quenching analysis relative to control
[28] = Binding affinity to 5'-CGGCCGCG-3' DNA hairpin assessed as change in fluorescence intensity at 1 uM after 45 mins by fluorescence quenching analysis relative to control
[29] = Binding affinity to 5'-GGCGCGCG-3' DNA hairpin assessed as change in fluorescence intensity at 1 uM after 45 mins by fluorescence quenching analysis relative to control
[30] = Binding affinity to 5'-CCGCCCCC-3' DNA hairpin assessed as change in fluorescence intensity at 1 uM after 45 mins by fluorescence quenching analysis relative to control
[31] = Binding affinity to 5'-CCCCCCGC-3' DNA hairpin assessed as change in fluorescence intensity at 1 uM after 45 mins by fluorescence quenching analysis relative to control
[32] = Binding affinity to 5'-CCCGGCGC-3' DNA hairpin assessed as change in fluorescence intensity at 1 uM after 45 mins by fluorescence quenching analysis relative to control
[33] = Binding affinity to 5'-CCGGGCGC-3' DNA hairpin assessed as change in fluorescence intensity at 1 uM after 45 mins by fluorescence quenching analysis relative to control
[34] = Binding affinity to 5'-CCGGGCGG-3' DNA hairpin assessed as change in fluorescence intensity at 1 uM after 45 mins by fluorescence quenching analysis relative to control
[35] = Binding affinity to 5'-CCGGGCCG-3' DNA hairpin assessed as change in fluorescence intensity at 1 uM after 45 mins by fluorescence quenching analysis relative to control
[36] = Binding affinity to 5'-GCCGCCCC-3' DNA hairpin assessed as change in fluorescence intensity at 1 uM after 45 mins by fluorescence quenching analysis relative to control

Activity [1]: 36.9%
Activity [2]: 43.5%
Activity [3]: 52.5%
Activity [4]: 39%
Activity [5]: 50.9%
Activity [6]: 39.6%
Activity [7]: 42.9%
Activity [8]: 35.6%
Activity [9]: 45%
Activity [10]: 44.6%
Activity [11]: 40.7%
Activity [12]: 52%
Activity [13]: 43.4%
Activity [14]: 47.6%
Activity [15]: 46.7%
Activity [16]: 16%
Activity [17]: 28.3%
Activity [18]: 19.8%
Activity [19]: 43.6%
Activity [20]: 32.2%
Activity [21]: 47.2%
Activity [22]: 51.2%
Activity [23]: 43.2%
Activity [24]: 37.5%
Activity [25]: 35.4%
Activity [26]: 43.7%
Activity [27]: 49.3%
Activity [28]: 48.6%
Activity [29]: 57.1%
Activity [30]: 41.4%
Activity [31]: 30.2%
Activity [32]: 44.8%
Activity [33]: 43.6%
Activity [34]: 50.1%
Activity [35]: 40.2%
Activity [36]: 48.5%
Compound: NCC1O[C@H](O[C@H]2[C@@H](O)[C@H](O[C@@H]3[C@@H](O)[C@H](N)C[C@H](N)[C@H]3O[C@H]3O[C@H](CN)[C@@H](O)[C@H](O)[C@H]3N)O[C@@H]2CSCCNC(=O)CCSCC(=O)Nc2ccc(-c3c4ccc(=O)cc-4oc4cc(O)ccc34)c(C(=O)O)c2)[C@H](N)[C@@H](O)[C@@H]1O (stereo partly specified)
